# From ChEMBL document CHEMBL1141974, “Inclusion complexes of N-sulfamoyloxazolidinones with beta-cyclodextrin” (Bioorg Med Chem Lett, 2005)
# Key:
# [1] = Relative hydrophobicity enhancement value obtained via beta-cyclodextrin complexation; type: ADME
# [2] = Partition coefficient (logP); type: physicochemical; conditions: octanol/water
# [3] = Partition coefficient (logP) (beta-cyclodextrin complex); type: physicochemical; conditions: octanol/water
SMILES,delta Log P [1],logP [2],logP [3]
CN(c1ccccc1)S(=O)(=O)N1CCOC1=O,0.78,0.56,-0.22
O=C1OCCN1S(=O)(=O)Nc1ccccc1,0.85,0.65,-0.2

# Now from value to molecule:
delta Log P [1],logP [2],logP [3],SMILES
1.01,1.12,0.1,Cc1ccc(NS(=O)(=O)N2CCOC2=O)cc1
0.94,0.77,-0.17,COc1ccc(NS(=O)(=O)N2CCOC2=O)cc1
0.9,0.55,-0.35,O=C1OCCN1S(=O)(=O)Nc1ccc([N+](=O)[O-])cc1
0.8,1.26,0.46,O=C1OCCN1S(=O)(=O)Nc1ccc(Cl)cc1
